According to patent publication US20260308149A1, “NOVEL CARBOXAMIDE DERIVATIVES” (ANGELINI PHARMA S.P.A., priority 2023, published 2026):

The compounds below were run against T1, human Kv7.2 (Homo sapiens, UniProt O43526) (assay: activation (potentiation) of Kv7.2 current, SyncroPatch 384 electrophysiology in CHO cells stably expressing human Kv7.2). Conditions: human Kv7.2 in CHO cells; in presence of 5.6 μM zinc pyrithione; % activation relative to 30 μM ML-213.
T1 construct: expressed in transfected cells
T1 sequence (O43526 whole entry): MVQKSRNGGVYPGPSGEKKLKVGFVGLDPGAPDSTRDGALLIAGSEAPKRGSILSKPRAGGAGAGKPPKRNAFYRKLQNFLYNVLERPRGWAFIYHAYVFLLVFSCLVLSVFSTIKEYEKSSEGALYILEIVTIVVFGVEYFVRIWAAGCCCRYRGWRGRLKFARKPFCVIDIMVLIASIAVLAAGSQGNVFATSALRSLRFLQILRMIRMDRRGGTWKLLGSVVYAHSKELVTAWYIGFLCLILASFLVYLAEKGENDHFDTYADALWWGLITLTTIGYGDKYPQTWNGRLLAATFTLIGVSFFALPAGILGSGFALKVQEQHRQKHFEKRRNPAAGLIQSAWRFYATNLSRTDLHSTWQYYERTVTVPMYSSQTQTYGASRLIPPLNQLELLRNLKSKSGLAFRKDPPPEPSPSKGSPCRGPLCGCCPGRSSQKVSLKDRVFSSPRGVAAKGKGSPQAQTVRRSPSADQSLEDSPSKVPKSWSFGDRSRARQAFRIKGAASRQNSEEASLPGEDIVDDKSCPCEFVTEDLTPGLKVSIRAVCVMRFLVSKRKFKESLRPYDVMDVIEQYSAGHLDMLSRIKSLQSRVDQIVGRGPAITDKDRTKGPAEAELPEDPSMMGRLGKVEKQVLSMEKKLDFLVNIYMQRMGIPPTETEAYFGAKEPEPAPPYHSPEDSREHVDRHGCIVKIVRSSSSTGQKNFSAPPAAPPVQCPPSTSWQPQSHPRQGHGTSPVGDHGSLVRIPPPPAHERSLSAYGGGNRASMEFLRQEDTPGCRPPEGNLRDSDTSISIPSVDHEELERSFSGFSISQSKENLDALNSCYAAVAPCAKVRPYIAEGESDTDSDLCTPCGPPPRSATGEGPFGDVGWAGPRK
Type: cell-based
Protocol: The potency of Kv7 potentiators was determined using the SyncroPatch 384 (Nanion) high throughput electrophysiology platform.
CHO cells stably expressing either human Kv7.2, Kv7.4 or Kv7.5/7.3 under a constitutive CMV promoter were used for these studies. Cells were maintained in F12 Hams+1 mM L-glutamine (Hyclone) supplemented with 10% FBS (Sigma), 0.3×NEAA (Non-essential Gamino-acids) and 400 ug/ml G418 at 37° C. in 5% CO2. Cells were cultured in T-225 flasks (Nunc) for 2-3 days to reach 85-95% confluence prior to electrophysiological recording.
Earle's balanced salt solution (in mM): 135 NaCl, 5.4 KCl, 5 Glucose, 2 CaCl2), 1 MgCl2, 5 HEPES, pH 7.4. Seal enhancer solution (in mM): 90 NaCl, 3 KCl, 35 CaCl2), 10 MgCl2, 10 HEPES, pH 7.4. Extracellular recording solution (in mM): 71 NaCl, 70 NMDG, 13 KCl. 5 Glucose, 2 CaCl2, 1 MgCl2, 10 HEPES, pH 7.4. Intracellular recording solution (in mM): 130 KF, 20 KCl, 4 EGTA, 10 HEPES, 2 EDTA, 0.01 Escin, pH 7.2.
Cells were harvested for electrophysiological recording upon reaching appropriate confluence. Cells were first washed in DPBS (Hyclone, Cat #SH30028.03) and then 2 ml of Accutase (MP Biomedicals #1000449) was added at 28° C. until ~90% of cells were suspended. F12 HAM's media+1 mM L-glutamine (Hyclone, SH30026.02) was then added to the flask to dilute the accutase. Cells were then triturated until a single cell suspension was achieved, a cell count was performed, and cells were centrifuged for 2 min. at 1,000 rpm. Media was then aspirated, and cells were resuspended in Earle's balanced salt solution to a concentration of 0.75×10^6 cells/ml and allowed to recover for 25 min at 10° C.
At the beginning of each assay, 20 μl of cell suspension was dispensed into each well of a multi-hole 384-well SyncroPatch chip by the onboard pipettor. Cell sealing was initiated, and seal enhancer solution was added to facilitate seal formation. Upon completion of sealing, cells were washed 3 times with extracellular recording solution and the assay voltage protocol was started. Human Kv7.2, Kv7.4 or Kv7.5/7.3 channels were evaluated using a voltage protocol in which cells were voltage-clamped at a holding potential of −60 mV. Potassium currents were continuously activated with a series of three voltage steps to −30 mV for 3 seconds, 40 mV for 1 second and −90 mV for 4 seconds with 12 seconds between successive voltage sweeps. Potassium currents were measured from the −90 mV repolarizing step. Baseline current was assessed for 3.5 minutes prior to the addition of 5.6 μM zinc pyrithione (1 μM for Kv7.4). Kv7.2, Kv7.4 or Kv7.5/7.3 current in the presence of zinc pyrithione was acquired over five minutes to allow channels to reach steady state activity prior to addition of test agents. Channel activity was monitored for three minutes preceding the addition of 30 μM ML-213 (3 minutes) to achieve maximum activation. 150 mM TEA with 10 μM XE-991 was applied for 2 minutes to measure the leak current during maximum inhibition of Kv7.2, Kv7.4 or Kv7.5/7.3 channels.
Data were collected on the SyncroPatch platform using PatchControl software (Nanion) and processed and analyzed using DataControl Software (Nanion). Percent activation was calculated from potassium current as follows: The average current for the 5 sweeps in the presence of zinc pyrithione immediately preceding test agent addition was taken as the ‘control’ data. Likewise, the average potassium current in the presence of test agents 5 sweeps immediately preceding addition of 30 μM ML-213 was determined for ‘drug’ data. The average potassium current 5 sweeps immediately prior to addition of 150 mM TEA+10 μM XE-991 was determined for ‘max activation’ data while average currents from 5 sweeps immediately following addition of TEA was determined for ‘max inhibition’ data. Percent activation for each of the 384-wells of a sealchip was calculated as ((‘drug’−‘max inhibition’)/(‘max activation’−‘max inhibition’))*100 with Pipeline Pilot (Accelrys). […]

SMILES | EC50
COC(C)(CNC(=O)NCC1CCCC1)c1cccc(Cl)c1 (single isomer, unassigned) [Example 71] | 530 nM
O=C(NC[C@@]1(c2cccc(Cl)c2)OCC1(F)F)[C@H]1C[C@@H]1c1ccccc1 (stereo in doubt) [Example 41, (1S,2S)-N-[[(2R)-2-(3-chlorophenyl)-3,3-difluoro-oxetan-2-yl]methyl]-2-phenyl-cyclopropanecarboxamide] | 50 nM
O=C(NC[C@]1(c2cccc(Cl)c2)OCC1(F)F)[C@H]1C[C@@H]1c1ccccc1 (stereo in doubt) [Example 42, (1S,2S)-N-[[(2S)-2-(3-chlorophenyl)-3,3-difluoro-oxetan-2-yl]methyl]-2-phenyl-cyclopropanecarboxamide] | 630 nM
O=C(NCC1(c2ccnc(OC(F)F)c2)CCO1)[C@H]1CC12CCCCC2 (stereo in doubt) [Example 122, N-[[2-[2-(difluoromethoxy)-4-pyridyl]oxetan-2-yl]methyl]spiro[2.5]octane-2-carboxamide] | 390 nM
CO[C@@](C)(CNC(=O)[C@H]1C[C@@H]1c1ccccc1)c1cccc(Cl)c1 [Example 2, (1S,2S)-N-[(2R)-2-(3-chlorophenyl)-2-methoxy-propyl]-2-phenyl-cyclopropanecarboxamide] | 60 nM
COC(C)(CNC(=O)NC1CCCC1)c1cccc(Cl)c1 (centres unmarked) [Example 3, 1-[2-(3-chlorophenyl)-2-methoxy-propyl]-3-cyclopentyl-urea] | 2340 nM
COC(CNC(=O)NC1CC2CCC1C2)c1cccc(Cl)c1 (centres unmarked) [Example 4, 1-[2-(3-chlorophenyl)-2-methoxy-ethyl]-3-norbornan-2-yl-urea] | 500 nM
COc1cccc(NC(=O)NCC(C)(OC)c2cccc(Cl)c2)c1 (centres unmarked) [Example 5, 1-[2-(3-chlorophenyl)-2-methoxy-propyl]-3-(3-methoxyphenyl)urea] | 1040 nM
COC(C)(CNC(=O)Nc1cccc(C)c1)c1cccc(Cl)c1 (centres unmarked) [Example 6, 1-[2-(3-chlorophenyl)-2-methoxy-propyl]-3-(m-tolyl)urea] | 2410 nM
O=C(NCC1(c2cccc(Cl)c2)CC1)NC1CCCC1 [Example 7, 1-[[1-(3-chlorophenyl)cyclopropyl]meth-yl]-3-cyclopentyl-urea] | 2720 nM
CCCCNC(=O)NCC(C)(OC)c1cccc(Cl)c1 (centres unmarked) [Example 8, 1-butyl-3-[2-(3-chlorophenyl)-2-methoxy-propyl]urea] | 3650 nM
COC(C)(CNC(=O)NCc1ccco1)c1cccc(Cl)c1 (centres unmarked) [Example 9, 1-[2-(3-chlorophenyl)-2-methoxy-propyl]-3-(2-furylmethyl)urea] | 2460 nM
COC(C)(CNC(=O)NCc1cccc(F)c1)c1cccc(Cl)c1 (centres unmarked) [Example 10, 1-[2-(3-chlorophenyl)-2-methoxy-propyl]-3-[(3-fluorophenyl)methyl]urea] | 760 nM
COC(C)(CNC(=O)NCc1cccc(C)c1)c1cccc(Cl)c1 (centres unmarked) [Example 11, 1-[2-(3-chlorophenyl)-2-methoxy-propyl]-3-(m-tolylmethyl)urea] | 1430 nM
O=C(NCC1(c2cccc(Cl)c2)CC1)NC1COC2(CCCC2)C1 (centres unmarked) [Example 12, 1-[[1-(3-chlorophenyl)cyclopropyl]meth-yl]-3-(1-oxaspiro[4.4]nonan-3-yl)urea] | 2920 nM
COC(C)(CNC(=O)NC1COC2(CCCC2)C1)c1cccc(Cl)c1 (centres unmarked) [Example 13, 1-[2-(3-chlorophenyl)-2-methoxy-propyl]-3-(1-oxaspiro[4.4]nonan-3-yl)urea] | 3550 nM
CCOc1cccc(NC(=O)NCC(C)(OC)c2cccc(Cl)c2)c1 (centres unmarked) [Example 14, 1-[2-(3-chlorophenyl)-2-methoxy-propyl]-3-(3-ethoxyphenyl)urea] | 600 nM
O=C(NCC1CCCCO1)NCC1(c2cccc(Cl)c2)CC1 (centres unmarked) [Example 15, 1-[[1-(3-chlorophenyl)cyclopropyl]meth-yl]-3-(tetrahydropyran-2-ylmethyl)urea] | 6920 nM

SMILES | EC50
CO[C@@](C)(CNC(=O)NC1CCCC1)c1cccc(Cl)c1 [Example 16, 1-[(2R)-2-(3-chlorophenyl)-2-methoxy-propyl]-3-cyclopentyl-urea] | 2870 nM
COc1cccc(NC(=O)NC[C@](C)(OC)c2cccc(Cl)c2)c1 [Example 17, 1-[(2R)-2-(3-chlorophenyl)-2-methoxy-propyl]-3-(3-methoxyphenyl)urea] | 1670 nM
O=C(NCC(OC1CC1)c1cccc(Cl)c1)NC1CCCC1 (centres unmarked) [Example 18, 1-[2-(3-chlorophenyl)-2-(cyclopropoxy)ethyl]-3-cyclopentyl-urea] | 4580 nM
COC(C)(CNC(=O)CC1CCCCC1)c1cccc(Cl)c1 (centres unmarked) [Example 19, N-[2-(3-chlorophenyl)-2-methoxy-propyl]-2-cyclohexyl-acetamide] | 620 nM
COC(C)(CNC(=O)NCC1CCCC1)c1cccc(Cl)c1 (centres unmarked) [Example 21, 1-[2-(3-chlorophenyl)-2-methoxy-propyl]-3-(cyclopentylmethyl)urea] | 550 nM
COC(CNC(=O)Nc1cccc(C)c1)c1cccc(Cl)c1 (centres unmarked) [Example 22, 1-[2-(3-chlorophenyl)-2-methoxy-ethyl]-3-(m-tolyl)urea] | 1990 nM
COC(C)(CNC(=O)NCC1CC1)c1cccc(Cl)c1 (centres unmarked) [Example 23, 1-[2-(3-chlorophenyl)-2-methoxy-propyl]-3-(cyclopropylmethyl)urea] | 8200 nM
CC(C)OC(CNC(=O)NC1CCCC1)c1cccc(Br)c1 (centres unmarked) [Example 24, 1-[2-(3-bromophenyl)-2-isopropoxy-ethyl]-3-cyclopentyl-urea] | 2920 nM
[2H]C([2H])([2H])OC(C)(CNC(=O)NC1CCCC1)c1cccc(Cl)c1 (centres unmarked) [Example 26, 1-[2-(3-chlorophenyl)-2-(trideuteriomethoxy)propyl]-3-cyclopentyl-urea] | 4010 nM
COc1cccc(NC(=O)NCC2(c3cccc(C)c3)OCCO2)c1 [Example 27, 1-(3-methoxyphenyl)-3-[[2-(m-tolyl)-1,3-dioxolan-2-yl]methyl]urea] | 3270 nM
CCOC(CNC(=O)NC1CCCC1)c1cccc(Br)c1 (centres unmarked) [Example 28, 1-[2-(3-bromophenyl)-2-ethoxy-ethyl]-3-cyclopentyl-urea] | 2580 nM
COC(C)(CNC(=O)Nc1cccc(OC(F)(F)F)c1)c1cccc(Cl)c1 (centres unmarked) [Example 29, 1-[2-(3-chlorophenyl)-2-methoxy-propyl]-3-[3-(trifluoromethoxy)phenyl]urea] | 5690 nM
COC(C)(CNC(=O)NC1CC=CC1)c1cccc(Cl)c1 (centres unmarked) [Example 30, 1-[2-(3-chlorophenyl)-2-methoxy-propyl]-3-cyclopent-3-en-1-yl-urea] | 3270 nM
COC(C)(CNC(=O)NCCCc1ccccc1)c1cccc(Cl)c1 (centres unmarked) [Example 32, 1-[2-(3-chlorophenyl)-2-methoxy-propyl]-3-(3-phenylpropyl)urea] | 1980 nM
COC(C)(CNC(=O)NCc1cccs1)c1cccc(Cl)c1 (centres unmarked) [Example 33, 1-[2-(3-chlorophenyl)-2-methoxy-propyl]-3-(2-thienylmethyl)urea] | 1860 nM
COc1ccc(CCNC(=O)NCC(C)(OC)c2cccc(Cl)c2)cc1 (centres unmarked) [Example 34, 1-[2-(3-chlorophenyl)-2-methoxy-propyl]-3-[2-(4-methoxyphenyl)ethyl]urea] | 3940 nM
COC(CNC(=O)Cc1cccc2ccccc12)c1ccccc1Cl (centres unmarked) [Example 36, N-[2-(2-chlorophenyl)-2-methoxy-ethyl]-2-(1-naphthyl)acetamide] | 1580 nM
